Values after ≈ are worked out from the molar mass of the structure shown.
Assays:
[1] = Stability test in 0.1 M HCl (anomerization followed by 1H NMR); type: physicochemical; conditions: for isomerization to the β-mannose derivative under acidic conditions: samples at t=0, 1 h, 2 h and 8 h, 1H NMR in D2O
Method: Compound 6 of WO 2014/016361 was dissolved in 0.1 M HCl and sample were freeze dried at t=0, 1 h, 2 h and 8 h (see FIG. 10). […] Indeed, under the acidic conditions, an equimolar α/β mixture at T=0 anomerize to a 1/3 α/β mixture at T=8 h.

AIEC strain LF82 = experiment: Adhesion assay of AIEC LF82 strain on intestinal epithelial cells T84 (pre- and post-incubation); type: cell-based, E. coli; conditions: pre-incubation (10 μM) and post-incubation (50 μM) protocols
Method: E. coli strain LF82 isolated from an ileal biopsy of a CD patient was used as the AIEC reference strain. Bacteria were grown overnight at 37° C. in Luria-Bertani (LB) broth, and a bacterial suspension was prepared at a concentration of 1.5×10^8 bacteria/mL in phosphate buffer saline (PBS) for adhesion assays. The human intestinal cell line T84, purchased from American Type Culture Collection (ATCC, CCL-248), was maintained in an atmosphere containing 5% CO2 at 37° C. in the culture medium recommended by ATCC. T84 cells were seeded in 48-well tissue culture plates at a density of 1.5×10^5 cells/well and incubated at 37° C. for 48 h.
AIEC reference strain LF82 was incubated for 1 h with HM or thiazole-bearing mannosides at final concentrations of 0.1, 1, or 10 μM, then bacteria/mannosides solution were incubated with T84 cells in order to have a multiplicity of infection (MOI) of 10 bacteria per cell (1.5×10^6 bacteria/well) for 3 h with. Effects of mannoside treatment were compared with HM. Monolayers were washed three times with PBS and lysed with 1% Triton X-100 (Sigma) in deionized water. Samples were diluted and plated onto LB agar plates to determine the number of colony-forming units (CFU). […]

[2] = system: uropathogenic E. coli strain UTI89; experiment: Hemagglutination inhibition assay, guinea pig erythrocytes, E. coli strain UTI89; type: cell-based; conditions: for MIC: Escherichia coli, read-out: minimal inhibitory concentration (MIC) / inhibition titer of haemagglutination; for inhibition of UTI89-induced hemagglutination (in words): FIG. 1
Method: Interaction of E. coli FimH adhesins with the glycocalyx of guinea pig erythrocytes forms a crosslinked network in the wells. Glycoconjugates, added in a 2-fold dilution series, prevent the agglutination reaction. The inhibition titer is defined as the lowest concentration of the glycoconjugate at which hemagglutination is still inhibited. Several strains of E. coli were grown statically overnight in LB at 37° C., washed three times in ice-cold phosphate-buffered saline, and redissolved. A 2-fold dilution of glycoconjugates with a starting concentration of 1 mM was prepared in 25 μL of PBS with 10% of DMSO. Importantly, the pipet tip was changed at every dilution step to avoid carry-over. Next, the bacterial solution (25 μL) was added to the 2-fold dilution series of the compound. Finally, 50 μL of guinea pig red blood cells, washed and diluted in the buffer to 5% of the blood volume, was added to reach 100 μL. The plates were left on ice for one night before read-out.
Inhibition of E. coli Strain UTI89 Isolated from Patient with Urinary Tract Infection.
The anti-adhesive capacity of the inhibitors was evaluated against ten E. coli strains isolated from CD patients, urinary tract infections, and hip prosthesis infections.

[3] = biological target: T1, FimH lectin domain (residues 1-158) from E. coli strain UTI89 (Escherichia coli, UniProt Q1R2J4); experiment: Isothermal titration calorimetry of FimH lectin domain; type: binding
T1 construct: FimH lectin domain (residues 1-158) from E. coli strain UTI89; made in house
Method: The recombinantly expressed FimH lectin domain (residues 1-158) from E. coli strain UTI89 was purified as described previously by Wellens et al. The FimH protein solution was put into the measurement cell (1452 μl) of a VP-ITC microcalorimeter (Malvern), at a concentration of 11.83 μM in the ITC working buffer (20 mM Na-Hepes at pH 7.4 and 150 mM NaCl). Compound 3c at 100 μM concentration was titrated into the FimH solution using 38 injections of 7 μl, leading to 38 heat peaks measured in μcal/sec (FIG. 12). The heat peaks were integrated (kCal/mole of injectant) to be presented in an enthalpogram with 38 data points (FIG. 12), used for the fitting to the model of one kind of binding sites (Microcal ITC Origin software) in order to derive the affinity (K) and the stoichiometry (N) of the interaction (FIG. 13). Using the constant absolute temperature (T) of the experiment, the entropic contribution ΔS was calculated (FIG. 13).

[4] = Faeces concentrations and recovery after IV and PO administration to rats; type: in vivo, Sprague Dawley rats; conditions: Sprague Dawley, rat, faeces, po, 10 mg/kg, PO 10 mg/kg, 0-24 h, mean of 3 rats; read-out: Recovery in faeces, mean (quantity found in faeces out of the administered quantity)
Method: Plasma and faeces concentrations after administration of Compound 1b and for compound 13 of WO 2014/016361 at 1 mg/kg by intravenous route and 10 mg/kg by oral route to Sprague Dawley rats Blank rat faeces are homogenized with 3 volumes of UHQ water until obtention of a paste. Then 100 μL of the homogenate are spiked with the molecules and precipitated with 300 μL of acetonitrile. The concentration ranges tested are: • 0.5 ng/mL to 1000 ng/mL for plasma, • 4 to 2000 ng/g for faeces, corresponding to 1 to 500 ng/mL of faeces homogenate. 3. In-Life Part After administration, the animals are placed in individual metabolic cages in order to collect faeces samples during 24 hours. Faeces samples are collected over the 24 hours of the experiment. They are precisely weighed and 3 volumes of UHQ water are added. The mixture is homogeneized until obtention of a paste. Then 100 μL of the homogenate are taken and extracted with 300 μL of Acetonitrile. Analysis is performed using LC-MS/MS determination according to previous analytical test results.

cystitis murine model = conditions: Wellens et al, 2008; cited from earlier work
AIEC = conditions: in vivo; cited from earlier work

In the case of `CC(=O)c1cnc(N[C@H]2O[C@H](CO)[C@@H](O)[C@H](O)[C@@H]2O)s1` [6 of WO 2014/016361], the α/β mixture ratio ([1]; T=8 h, equimolar α/β mixture at T=0) is reported as 1/3 and the “isomerization to the β-mannose derivative under acidic conditions” value [1] is reported as “isomerizes to the corresponding β-mannose derivative”.

With `CC(=O)c1cnc(C[C@H]2O[C@H](CO)[C@@H](O)[C@H](O)[C@@H]2O)s1` [Compound 1a, 5-acetyl-2-((α-D-mannopyranos-1-yl)methyl)thiazole] the “isomerization to the β-mannose derivative under acidic conditions” value [1] was “does not isomerize”.

In the case of `CC(=O)c1cnc(SC[C@H]2O[C@H](CO)[C@@H](O)[C@H](O)[C@@H]2O)s1` [Compound 2b, 5-acetyl-2-((α-D-mannopyranos-1-yl)methylthioxy)thiazole], the “potency to inhibit attachment of LF82 to T84 cells compared with heptylmannoside” value (AIEC strain LF82) is reported as “more potent than the reference compound heptylmannoside”.

In the case of `CC(=O)c1cnc(NC[C@H]2O[C@H](CO)[C@@H](O)[C@H](O)[C@@H]2O)s1` [Compound 2c], the “potency relative to HM at disrupting E. coli promoted hemagglutination” value ([2]; E. coli UTI89) is reported as 8 fold, the MIC [2] is reported as 0.098 µM (≈ 0.0312 µg/mL) and the “inhibition of UTI89-induced hemagglutination (in words)” value (“inhibition” for short) [2] is reported as “potent inhibitors”.

In the case of `Cc1nc(-c2cnccn2)sc1C(=O)c1cnc(NC[C@H]2O[C@H](CO)[C@@H](O)[C@H](O)[C@@H]2O)s1` [Compound 2d, 5-(4-methyl-2-(pyrazin-2-yl)thiazol-5-ylcarbonyl)-2-(((α-D-mannopyranosyl)methyl)amino)-thiazole], the MIC [2] is reported as 3.12 µM (≈ 1.5 µg/mL) and the “inhibition” value [2] is reported as “potent inhibitors”.

`Cc1nc(NCc2cn(CC3OC(CO)C(O)C(O)C3O)nn2)sc1C(=O)c1cnc(NCC2OC(CO)C(O)C(O)C2O)s1` (centres unmarked) [Compound 3c] showed a Kd [3] of 54.6 nM, a ΔH ([3]; ITC) of -23.630 ± 0.3755 kcal/mol and a ΔS ([3]; ITC, calculated using T of the experiment) of −46.8 cal/mol/deg. The “n (stoichiometry)” value ([3]; ITC, one kind of binding sites model) was 0.874+/−0.00868 sites.

`Cc1nc(-c2cnccn2)sc1C(=O)c1cnc(N[C@H]2O[C@H](CO)[C@@H](O)[C@H](O)[C@@H]2O)s1` [Compound 13 of WO 2014/016361, reference compound] showed a dose excreted [4] of 52.4%.

For `CCCCCCCO[C@H]1O[C@H](CO)[C@@H](O)[C@H](O)[C@@H]1O` [HM, heptylmannose], the “inhibition” value [2] is given as “potent inhibitors”, the “concentration required to observe a significant bacterial load reduction” value (cystitis murine model) is given as “millimolar” and the “effect with AIEC in CEABAC 10 Crohn's disease model” value (AIEC) is given as “no effect”.
